Reference: ChEMBL document CHEMBL5214888, “The new opportunities in medicinal chemistry of fourth-generation EGFR inhibitors to overcome C797S mutation” (Eur J Med Chem, 2021)
pIC50: −log10 of the molar value.

Columns and labels:
[1] = molecular target: T1, Epidermal growth factor receptor (Homo sapiens, UniProt P00533, C797S/EX19DEL/T790M); assay: Inhibition of human EGFR del19/T790M/C797S mutant assessed as enzyme remaining activity using poly-Glu-Tyr peptide substrate incubated for 2 hrs in presence of [gamma-33P]ATP by radiometric kinase assay
T1 sequence (P00533 whole entry, looked up, stated change not applied): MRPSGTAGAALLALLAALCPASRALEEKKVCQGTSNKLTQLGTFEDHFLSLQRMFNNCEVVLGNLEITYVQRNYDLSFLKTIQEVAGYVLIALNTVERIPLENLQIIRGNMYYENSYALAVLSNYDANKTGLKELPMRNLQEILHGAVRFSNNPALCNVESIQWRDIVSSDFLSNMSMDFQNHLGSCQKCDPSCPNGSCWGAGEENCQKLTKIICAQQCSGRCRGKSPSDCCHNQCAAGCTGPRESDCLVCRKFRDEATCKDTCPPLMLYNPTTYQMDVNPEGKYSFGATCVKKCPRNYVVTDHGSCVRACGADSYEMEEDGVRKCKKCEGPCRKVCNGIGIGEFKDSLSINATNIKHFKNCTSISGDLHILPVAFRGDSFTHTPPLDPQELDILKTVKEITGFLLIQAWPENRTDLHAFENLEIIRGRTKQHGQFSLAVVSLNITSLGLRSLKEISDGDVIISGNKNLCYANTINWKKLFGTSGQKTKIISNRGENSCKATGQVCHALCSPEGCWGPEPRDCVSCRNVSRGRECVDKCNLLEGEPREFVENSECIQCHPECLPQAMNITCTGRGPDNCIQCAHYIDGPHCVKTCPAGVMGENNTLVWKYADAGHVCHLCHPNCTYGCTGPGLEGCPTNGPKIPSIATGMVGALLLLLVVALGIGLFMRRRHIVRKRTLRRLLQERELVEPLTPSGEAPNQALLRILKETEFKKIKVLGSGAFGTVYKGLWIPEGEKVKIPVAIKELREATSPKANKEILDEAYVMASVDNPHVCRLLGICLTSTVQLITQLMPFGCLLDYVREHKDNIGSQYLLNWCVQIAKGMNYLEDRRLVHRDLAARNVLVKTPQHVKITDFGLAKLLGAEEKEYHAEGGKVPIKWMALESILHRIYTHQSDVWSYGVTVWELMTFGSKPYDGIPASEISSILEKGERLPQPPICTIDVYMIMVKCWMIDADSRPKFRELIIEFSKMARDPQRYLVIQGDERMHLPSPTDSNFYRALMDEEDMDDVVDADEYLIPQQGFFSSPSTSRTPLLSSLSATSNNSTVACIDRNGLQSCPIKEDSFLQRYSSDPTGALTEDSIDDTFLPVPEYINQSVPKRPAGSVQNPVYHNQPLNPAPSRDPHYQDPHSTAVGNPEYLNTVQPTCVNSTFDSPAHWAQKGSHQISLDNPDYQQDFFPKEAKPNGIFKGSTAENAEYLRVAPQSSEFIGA

[2] = molecular target: T2, Epidermal growth factor receptor (Homo sapiens, UniProt P00533, C797S/L858R/T790M); assay: Inhibition of EGFR L858R/T790M/C797S mutant (unknown origin)
T2 sequence (P00533 25-1210 T790M/C797S/L858R limits assumed): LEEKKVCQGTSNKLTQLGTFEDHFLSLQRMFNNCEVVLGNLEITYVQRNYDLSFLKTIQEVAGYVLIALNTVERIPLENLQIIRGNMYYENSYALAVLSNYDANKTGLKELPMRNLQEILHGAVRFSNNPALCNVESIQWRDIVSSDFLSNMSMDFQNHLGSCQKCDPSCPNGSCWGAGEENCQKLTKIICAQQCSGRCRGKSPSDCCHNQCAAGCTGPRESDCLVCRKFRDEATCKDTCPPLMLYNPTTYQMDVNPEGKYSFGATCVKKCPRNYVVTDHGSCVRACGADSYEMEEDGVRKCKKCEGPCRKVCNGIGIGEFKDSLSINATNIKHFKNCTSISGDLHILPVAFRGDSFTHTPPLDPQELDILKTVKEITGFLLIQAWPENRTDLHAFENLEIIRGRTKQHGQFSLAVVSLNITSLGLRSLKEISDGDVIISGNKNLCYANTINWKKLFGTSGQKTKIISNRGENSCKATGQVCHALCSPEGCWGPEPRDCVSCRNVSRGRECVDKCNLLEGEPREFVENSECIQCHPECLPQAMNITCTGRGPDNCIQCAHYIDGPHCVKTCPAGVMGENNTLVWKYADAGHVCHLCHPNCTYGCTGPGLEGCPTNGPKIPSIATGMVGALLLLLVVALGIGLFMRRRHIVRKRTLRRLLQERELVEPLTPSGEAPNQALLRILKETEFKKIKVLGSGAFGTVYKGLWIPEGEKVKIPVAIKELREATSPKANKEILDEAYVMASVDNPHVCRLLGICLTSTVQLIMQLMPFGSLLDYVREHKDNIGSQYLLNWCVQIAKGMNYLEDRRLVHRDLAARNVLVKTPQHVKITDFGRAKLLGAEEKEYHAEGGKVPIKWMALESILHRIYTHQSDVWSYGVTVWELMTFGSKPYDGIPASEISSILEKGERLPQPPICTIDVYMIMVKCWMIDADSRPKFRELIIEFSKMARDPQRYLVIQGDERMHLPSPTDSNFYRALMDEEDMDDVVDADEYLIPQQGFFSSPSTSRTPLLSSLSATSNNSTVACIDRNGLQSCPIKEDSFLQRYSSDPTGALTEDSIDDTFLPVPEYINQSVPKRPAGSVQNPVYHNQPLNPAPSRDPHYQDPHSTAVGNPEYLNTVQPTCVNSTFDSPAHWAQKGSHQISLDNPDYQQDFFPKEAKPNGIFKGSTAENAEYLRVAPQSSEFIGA

BaF3 [3] = assay: Cytotoxicity against mouse BaF3 cells expressing human EGFR C797S/del19 mutant assessed as inhibition of in cell viability measured after 72 hrs by CellTiter-Glo assay; format: functional, cell-based; conditions: BaF3, 72 h
BaF3 [4] = assay: Cytotoxicity against mouse BaF3 cells expressing human EGFR C797S/T790M/del19 mutant assessed as inhibition of in cell viability measured after 72 hrs by CellTiter-Glo assay; format: functional, cell-based; conditions: BaF3, 72 h
PC-9 [5] = assay: Antiproliferative activity against human PC-9 cells assessed as inhibition of cell proliferation; format: functional, cell-based
PC-9 [6] = assay: Antiproliferative activity against human PC-9 cells harboring EGFR del19/T790M/C797S mutant assessed as inhibition of cell proliferation; format: functional, cell-based
PC-9 [7] = assay: Antiproliferative activity against human PC-9 cells harboring EGFR L858R/T790M/C797S mutant assessed as inhibition of cell proliferation; format: functional, cell-based
A549 = assay: Antiproliferative activity against human A549 assessed as inhibition of cell proliferation; format: functional, cell-based
[8] = Half life in C57Bl/6 mouse at 3 mg/kg, iv and measured upto 8 hrs by LC-MS/MS analysis; format: ADME, organism-based; conditions: in vivo
[9] = AUClast in C57Bl/6 mouse at 3 mg/kg, iv and measured upto 8 hrs by LC-MS/MS analysis; format: ADME, organism-based; set-up: dose 3 mg/kg, time < 8 hrs, route iv; conditions: in vivo
[10] = Cmax in C57Bl/6 mouse plasma at 20 mg/kg, po and measured upto 8 hrs by LC-MS/MS analysis; format: ADME, organism-based; set-up: dose 20 mg/kg, time < 8 hrs, route po
[11] = Oral bioavailability in C57Bl/6 mouse plasma at 20 mg/kg and measured upto 8 hrs by LC-MS/MS analysis; format: ADME, organism-based
[12] = molecular target: T1, Epidermal growth factor receptor; assay: Inhibition of human EGFR del19/T790M/C797S mutant using ATP-labelled peptide substrate by HTRF assay
BaF3 [13] = assay: cells; conditions: Mus musculus, BaF3, 72 h
[14] = molecular target: T1, Epidermal growth factor receptor; assay: Inhibition of EGFR del19/T790M/C797S triple mutant (unknown origin) phosphorylation expressed in mouse BaF3 cells by fluorescence based microplate reader analysis; format: cell-based
BaF3 [15] = assay: Antiproliferative activity against mouse BaF3 cells harboring EGFR del19/T790M/C797S triple mutant assessed as inhibition of cell proliferation by celltiter-Glo assay; format: functional, cell-based
[16] = molecular target: T3, Epidermal growth factor receptor (Homo sapiens, UniProt P00533); assay: Inhibition of human wild type GST-tagged EGFR expressed in Sf9 cells assessed as substrate phosphorylation using TK-peptide as substrate incubated for 25 mins by HTRF assay
T3 sequence (P00533 whole entry): as the sequence (P00533 whole entry, looked up, stated change not applied) above

[17] = molecular target: T4, Epidermal growth factor receptor (Homo sapiens, UniProt P00533, L858R/T790M); assay: Inhibition of human GST-tagged EGFR L858R/T790M mutant expressed in Sf9 cells assessed as substrate phosphorylation using TK-peptide as substrate incubated for 20 mins by HTRF assay
T4 sequence (P00533 25-1210 T790M/L858R limits assumed): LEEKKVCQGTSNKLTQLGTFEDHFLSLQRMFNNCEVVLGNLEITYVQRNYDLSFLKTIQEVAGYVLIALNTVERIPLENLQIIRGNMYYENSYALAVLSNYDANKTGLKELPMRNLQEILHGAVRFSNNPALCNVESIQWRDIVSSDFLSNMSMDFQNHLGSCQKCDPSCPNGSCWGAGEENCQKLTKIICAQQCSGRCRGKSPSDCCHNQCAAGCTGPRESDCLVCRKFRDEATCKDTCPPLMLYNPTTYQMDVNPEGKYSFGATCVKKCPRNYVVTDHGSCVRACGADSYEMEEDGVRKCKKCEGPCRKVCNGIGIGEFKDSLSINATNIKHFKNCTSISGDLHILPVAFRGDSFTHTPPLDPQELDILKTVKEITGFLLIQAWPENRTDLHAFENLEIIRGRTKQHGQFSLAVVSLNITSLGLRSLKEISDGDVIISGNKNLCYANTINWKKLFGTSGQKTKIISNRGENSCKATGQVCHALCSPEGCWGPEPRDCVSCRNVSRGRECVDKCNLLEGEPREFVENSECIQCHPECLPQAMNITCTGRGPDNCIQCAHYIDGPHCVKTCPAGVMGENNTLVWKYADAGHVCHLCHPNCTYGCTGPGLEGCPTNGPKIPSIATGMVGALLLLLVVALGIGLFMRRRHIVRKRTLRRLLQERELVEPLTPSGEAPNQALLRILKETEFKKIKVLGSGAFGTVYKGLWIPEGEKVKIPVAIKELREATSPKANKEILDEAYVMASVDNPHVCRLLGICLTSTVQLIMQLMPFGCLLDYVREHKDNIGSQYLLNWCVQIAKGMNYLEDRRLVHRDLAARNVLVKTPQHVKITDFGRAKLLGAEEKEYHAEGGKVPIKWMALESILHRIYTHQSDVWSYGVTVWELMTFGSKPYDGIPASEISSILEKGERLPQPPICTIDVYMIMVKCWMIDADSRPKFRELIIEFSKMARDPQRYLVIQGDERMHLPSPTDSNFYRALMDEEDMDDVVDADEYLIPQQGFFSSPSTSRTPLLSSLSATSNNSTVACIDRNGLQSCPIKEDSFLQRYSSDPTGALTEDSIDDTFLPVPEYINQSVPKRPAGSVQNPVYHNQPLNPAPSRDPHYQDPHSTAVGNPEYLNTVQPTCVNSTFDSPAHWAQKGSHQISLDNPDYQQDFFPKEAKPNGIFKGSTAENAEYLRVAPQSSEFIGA

[18] = molecular target: T2, Epidermal growth factor receptor; assay: Inhibition of human GST-tagged EGFR L858R/T790M/C797S mutant expressed in Sf9 cells assessed as substrate phosphorylation using TK-peptide as substrate incubated for 10 mins by HTRF assay
[19] = molecular target: T4, Epidermal growth factor receptor; assay: Inhibition of EGFR L858R/T790M mutant (unknown origin)
[20] = molecular target: T3, Epidermal growth factor receptor; assay: Inhibition of wild type EGFR (unknown origin)
BaF3 [21] = assay: cells; conditions: Mus musculus
BaF3 [22] = assay: cells; conditions: Mus musculus; remark: listed apart in the source

Oc1ccccc1-c1nc(NCc2cccnc2)c2ccccc2n1
pIC50 [1]: 6.83

CSc1nc(-c2ccc(F)cc2)c(-c2ccnc(Nc3ccccc3)c2)[nH]1
pIC50 [2]: < 6.83

COc1cc(N2CCC(N(C)C)CC2)ccc1Nc1ncc(Cl)c(Nc2ccccc2P(C)(C)=O)n1
pIC50 (BaF3 [3]): 7.55
pIC50 (BaF3 [4]): 7.23

COc1cc(N2CCC(N)CC2)ccc1Nc1ncc(Cl)c(-c2c[nH]c3ccccc23)n1
pIC50 (BaF3 [3]): 7.13
pIC50 (BaF3 [4]): 6.88

N#Cc1ccc(O)c(-c2nc(NCc3cccnc3)c3ccccc3n2)c1
pIC50 [1]: 7.75

COC(=O)c1ccc(O)c(-c2nc(NCc3cccnc3)c3ccccc3n2)c1
pIC50 [1]: 7.34

N#Cc1ccc(O)c(-c2nc(NCc3cnccn3)c3ccccc3n2)c1
pIC50 [1]: 7.77

COc1ccc(-c2c3c4cc(OCCCN(C)C)c(OCCCN(C)C)cc4oc(=O)c3n3ccc4cc(O)c(OC)cc4c23)cc1O
pIC50 (PC-9 [5]): 6.18
pIC50 (PC-9 [6]): 6.13
pIC50 (PC-9 [7]): 6.22
pIC50 (A549): 5.54

O=C(Nc1nccs1)C(c1cc(F)ccc1O)N1Cc2ccc(-c3ccc(N4CCNCC4)cc3)cc2C1=O (centres undefined)
half-life [8]: 3 h
AUC(0-t) at 8 h [9]: 12100 ng·h/mL
Cmax [10]: 1100 nM
bioavailability [11]: 3%

COc1cc(N2CCC(N3CCN(C)CC3)CC2)ccc1Nc1ncc(Cl)c(Nc2ccccc2NS(C)(=O)=O)n1
pIC50 [12]: 9.70

COc1cc(N2CCC(N3CCN(CCO)CC3)CC2)ccc1Nc1ncc(Cl)c(Nc2ccccc2NS(C)(=O)=O)n1
pIC50 [12]: 9.10

O=C(Nc1nccs1)C(c1ccccc1)N1Cc2ccc(-c3ccc4[nH]ccc4c3)cc2C1=O (centres undefined)
pIC50 (BaF3 [13]): 6.05

Cc1cc(Nc2ncc(Cl)c(Nc3ccccc3P(C)(C)=O)n2)ccc1N1CCC2(CC1)CN(C)C2
pIC50 [14]: > 7.00
pIC50 (BaF3 [15]): > 7.00

CCCCOc1ncnc2[nH]c(-c3ccc(N4CCN(C)CC4)cc3)c(-c3cccc(NC(=O)CC)c3)c12
pIC50 [16]: > 10.00
pIC50 [17]: > 10.00
pIC50 [18]: 8.03

Oc1ccc(-c2nc(-c3ccc(F)cc3)c(-c3ccnc4c3CC(c3ccccc3)N4)[nH]2)cc1 (centres undefined)
pIC50 [19]: 6.04
pIC50 [20]: 7.31

CCC(=O)Nc1cccc(-c2c(-c3ccc(N4CCN(C)CC4)cc3)[nH]c3ncn(C4CCCCC4)c(=O)c23)c1
pIC50 [16]: 9.40
pIC50 [17]: 9.40
pIC50 [18]: 7.66

CCC(=O)Nc1cccc(-c2c(-c3ccccc3)[nH]c3ncnc(OC)c23)c1
pIC50 [16]: 5.92
pIC50 [17]: 6.75

OCCCCc1ccc(-c2nc(-c3ccc(F)cc3)c(-c3ccnc4c3CC(c3ccccc3)N4)[nH]2)cc1 (centres undefined)
pIC50 [2]: 8.05
pIC50 [19]: 8.08
pIC50 [20]: > 9.52

CN1CCC2(CC1)CCN(c1ccc(Nc3ncc(Cl)c(Nc4ccccc4P(C)(C)=O)n3)cc1Br)CC2
pIC50 [14]: > 7.00
pIC50 (BaF3 [15]): > 7.00

CC(=O)N[C@H]1CC[C@@H](N2C(=O)N(c3ccccc3Cl)Cc3cnc(Nc4ccc(N5CCN(C)CC5)c(C)c4)nc32)CC1
pIC50 (BaF3 [21]): 6.54
pIC50 (BaF3 [22]): 6.50

OCCc1ccc(-c2nc(-c3ccc(F)cc3)c(-c3ccnc4c3CC(c3ccccc3)N4)[nH]2)cc1 (centres undefined)
pIC50 [2]: 8.12
pIC50 [19]: 7.90
pIC50 [20]: > 9.52

CCC(=O)Nc1cccc(-c2c(-c3ccc(N4CCN(C)CC4)cc3)[nH]c3ncnc(OCC(C)C)c23)c1
pIC50 [16]: 9.70
pIC50 [17]: > 10.00
pIC50 [18]: 8.07

CCC(=O)Nc1cccc(-c2c(-c3ccc(N4CCN(C)CC4)cc3)[nH]c3ncnc(OC(C)C)c23)c1
pIC50 [16]: 10.00
pIC50 [17]: 10.00
pIC50 [18]: 8.07

C=C(C)c1cnc(Nc2ccc(N3CCC4(CCN(C)CC4)CC3)c(C)c2)nc1Nc1ccccc1P(C)(C)=O
pIC50 [14]: > 7.00
pIC50 (BaF3 [15]): > 7.00

COc1cc(N2CCC(N3CCN(C)CC3)CC2)ccc1Nc1ncnc(Nc2ccccc2S(=O)(=O)C(C)C)n1 [ASP-3026]
pIC50 (BaF3 [3]): 6.49
pIC50 (BaF3 [4]): 5.82

COc1cc(N2CCC(N3CCN(C)CC3)CC2)ccc1Nc1ncc(Cl)c(Nc2ccccc2P(C)(C)=O)n1 [BRIGATINIB]
pIC50 (BaF3 [3]): 7.40

Cc1cc(Nc2ncc(Cl)c(Nc3ccccc3S(=O)(=O)C(C)C)n2)c(OC(C)C)cc1C1CCNCC1 [CERITINIB]
pIC50 (BaF3 [4]): 6.11
